Measurements as given in PubChem BioAssay AID2060612 (Molecular Pharmacology Branch, DTP, NCI, 2025).
“And” between values parts separate entries of the source, which are not always exact repeats. Identical values can stand only once.

Tested on: 565232-114-T-J1-PDC complex spheroid viability
Assay: Anticancer human tumor 565232-114-T-J1-PDC patient-derived bladder carcinoma cell line growth inhibition [CLK]
Conditions: for viability, T/C: stronger effect = lower value
Summary of the method: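 Patient-derived tumor cells grown as complex spheroids with HUVEC endothelial cells and mesenchymal stem cells, treated with drug combinations. Concentrations descend in half-log steps from near clinical Cmax, or from 10 microM if Cmax unknown.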

[1] = curve of first compound, second compound 0.0316 µM
[2] = curve of first compound, second compound 0.1 µM
[3] = curve of first compound, second compound 0.316 µM
[4] = curve of first compound, second compound 1 µM
[5] = curve of first compound, second compound 3.16 µM
[6] = curve of first compound, second compound 10 µM
[7] = second compound 0.0316 µM, first compound 0.0316 µM
[8] = second compound 0.0316 µM, first compound 0.1 µM
[9] = second compound 0.0316 µM, first compound 0.316 µM
[10] = second compound 0.0316 µM, first compound 1 µM
[11] = second compound 0.0316 µM, first compound 3.16 µM
[12] = second compound 0.0316 µM, first compound 10 µM
[13] = second compound 0.1 µM, first compound 0.0316 µM
[14] = second compound 0.1 µM, first compound 0.1 µM
[15] = second compound 0.1 µM, first compound 0.316 µM
[16] = second compound 0.1 µM, first compound 1 µM
[17] = second compound 0.1 µM, first compound 3.16 µM
[18] = second compound 0.1 µM, first compound 10 µM
[19] = second compound 0.316 µM, first compound 0.0316 µM
[20] = second compound 0.316 µM, first compound 0.1 µM
[21] = second compound 0.316 µM, first compound 0.316 µM
[22] = second compound 0.316 µM, first compound 1 µM
[23] = second compound 0.316 µM, first compound 3.16 µM
[24] = second compound 0.316 µM, first compound 10 µM
[25] = second compound 1 µM, first compound 0.0316 µM
[26] = second compound 1 µM, first compound 0.1 µM
[27] = second compound 1 µM, first compound 0.316 µM
[28] = second compound 1 µM, first compound 1 µM
[29] = second compound 1 µM, first compound 3.16 µM
[30] = second compound 1 µM, first compound 10 µM
[31] = second compound 3.16 µM, first compound 0.0316 µM
[32] = second compound 3.16 µM, first compound 0.1 µM
[33] = second compound 3.16 µM, first compound 0.316 µM
[34] = second compound 3.16 µM, first compound 1 µM
[35] = second compound 3.16 µM, first compound 3.16 µM
[36] = second compound 3.16 µM, first compound 10 µM
[37] = second compound 10 µM, first compound 0.0316 µM
[38] = second compound 10 µM, first compound 0.1 µM
[39] = second compound 10 µM, first compound 0.316 µM
[40] = second compound 10 µM, first compound 1 µM
[41] = second compound 10 µM, first compound 3.16 µM
[42] = second compound 10 µM, first compound 10 µM
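Also: spheroids exposed to compounds for 7 days before readout.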
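For viability, T/C in this document: 100% = DMSO vehicle wells with luminescence normalized to vehicle control.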

CC(CO)NC(=O)c1cc(-c2ccc(Cl)cc2)nn(-c2cnn(C)c2)c1=O (stereo not drawn) + CNC(=O)c1ccc(Nc2nc(OC3CCCC3)c3c(-c4ccc5nc(C)oc5c4)c[nH]c3n2)c(OC)c1
IC50 [1]: > 10 µM
IC50 [2]: 0.131 µM
IC50 [3]: < 0.0316 µM
IC50 [4]: < 0.0316 µM
IC50 [5]: < 0.0316 µM
IC50 [6]: < 0.0316 µM
viability, T/C [7]: 85.2%
viability, T/C [8]: 74.3%
viability, T/C [9]: 79.8%
viability, T/C [10]: 83%
viability, T/C [11]: 97.6%
viability, T/C [12]: 117%
viability, T/C [13]: 50.5%
viability, T/C [14]: 51.3%
viability, T/C [15]: 48.8%
viability, T/C [16]: 47.1%
viability, T/C [17]: 51%
viability, T/C [18]: 45.4%
viability, T/C [19]: 35%
viability, T/C [20]: 26.5%
viability, T/C [21]: 32.5%
viability, T/C [22]: 36.1%
viability, T/C [23]: 37.7%
viability, T/C [24]: 34%
viability, T/C [25]: 22.1%
viability, T/C [26]: 23.6%
viability, T/C [27]: 23.7%
viability, T/C [28]: 21.1%
viability, T/C [29]: 23.5%
viability, T/C [30]: 22.5%
viability, T/C [31]: 17.5%
viability, T/C [32]: 18.2%
viability, T/C [33]: 19.7%
viability, T/C [34]: 18.2%
viability, T/C [35]: 22%
viability, T/C [36]: 19%
viability, T/C [37]: 19.9%
viability, T/C [38]: 18.1%
viability, T/C [39]: 18.4%
viability, T/C [40]: 16.2%
viability, T/C [41]: 18.4%
viability, T/C [42]: 17.7%

O=c1[nH]cc(F)c(=O)[nH]1
viability, T/C (compound 0.0316 µM): 91.2% and 106%
viability, T/C (compound 0.1 µM): 80.1% and 80.5%
viability, T/C (compound 0.316 µM): 80.7% and 124%
viability, T/C (compound 1 µM): 88.1% and 93.1%
viability, T/C (compound 3.16 µM): 134% and 80.6%
viability, T/C (compound 10 µM): 131% and 71.9%
IC50 (curve of compound): > 10 µM

C=CC(=O)N1CCN(c2nc(=O)n(-c3c(C)ccnc3C(C)C)c3nc(-c4c(O)cccc4F)c(F)cc23)C(C)C1 (stereo not drawn)
viability, T/C (compound 0.0316 µM): 122%
viability, T/C (compound 0.1 µM): 82.7%
viability, T/C (compound 0.316 µM): 91.2%
viability, T/C (compound 1 µM): 97%
viability, T/C (compound 3.16 µM): 110%
viability, T/C (compound 10 µM): 111%
IC50 (curve of compound): > 10 µM

CNC(=O)c1ccc(Nc2nc(OC3CCCC3)c3c(-c4ccc5nc(C)oc5c4)c[nH]c3n2)c(OC)c1
viability, T/C (compound 0.1 µM): 54.9% [middle of 12 runs]
viability, T/C (compound 0.316 µM): 34.4% [middle of 12 runs]
viability, T/C (compound 1 µM): 22.6% [middle of 12 runs]
viability, T/C (compound 3.16 µM): 16% [middle of 12 runs]
viability, T/C (compound 10 µM): 15.4% [middle of 12 runs]
IC50 (compound alone, run of 08/01/2023): 130 nM [middle of 12 runs]

NC(=O)C(=Cn1cnc(-c2cc(C(F)(F)F)cc(C(F)(F)F)c2)n1)c1cncnc1 + CN1CCN(c2cc(C(=O)Nc3cc4cc(-c5cnn(C)c5)ccc4cn3)ccn2)CC1
IC50 [1]: 0.384 µM
IC50 [2]: 0.19 µM
IC50 [3]: < 0.00949 µM
IC50 [4]: < 0.00949 µM
IC50 [5]: < 0.00949 µM
IC50 [6]: < 0.00949 µM
viability, T/C (second compound 0.0316 µM, first compound 0.00949 µM): 110%
viability, T/C (second compound 0.0316 µM, first compound 0.03 µM): 79.4%
viability, T/C (second compound 0.0316 µM, first compound 0.0949 µM): 116%
viability, T/C (second compound 0.0316 µM, first compound 0.3 µM): 63%
viability, T/C (second compound 0.0316 µM, first compound 0.949 µM): 2.12%
viability, T/C (second compound 0.0316 µM, first compound 3 µM): 2.86%
viability, T/C (second compound 0.1 µM, first compound 0.00949 µM): 112%
viability, T/C (second compound 0.1 µM, first compound 0.03 µM): 89.6%
viability, T/C (second compound 0.1 µM, first compound 0.0949 µM): 69.7%
viability, T/C (second compound 0.1 µM, first compound 0.3 µM): 44.2%
viability, T/C (second compound 0.1 µM, first compound 0.949 µM): 1.42%
viability, T/C (second compound 0.1 µM, first compound 3 µM): 0.17%
viability, T/C (second compound 0.316 µM, first compound 0.00949 µM): 11.2%
viability, T/C (second compound 0.316 µM, first compound 0.03 µM): 19.1%
viability, T/C (second compound 0.316 µM, first compound 0.0949 µM): 4.82%
viability, T/C (second compound 0.316 µM, first compound 0.3 µM): 0.31%
viability, T/C (second compound 0.316 µM, first compound 0.949 µM): 0.21%
viability, T/C (second compound 0.316 µM, first compound 3 µM): 0.15%
viability, T/C (second compound 1 µM, first compound 0.00949 µM): 0.13%
viability, T/C (second compound 1 µM, first compound 0.03 µM): 1.42%
viability, T/C (second compound 1 µM, first compound 0.0949 µM): 0.31%
viability, T/C (second compound 1 µM, first compound 0.3 µM): 0.24%
viability, T/C (second compound 1 µM, first compound 0.949 µM): 0.19%
viability, T/C (second compound 1 µM, first compound 3 µM): 0.08%
viability, T/C (second compound 3.16 µM, first compound 0.00949 µM): 0.19%
viability, T/C (second compound 3.16 µM, first compound 0.03 µM): 0.22%
viability, T/C (second compound 3.16 µM, first compound 0.0949 µM): 3.11%
viability, T/C (second compound 3.16 µM, first compound 0.3 µM): 0.24%
viability, T/C (second compound 3.16 µM, first compound 0.949 µM): 1.65%
viability, T/C (second compound 3.16 µM, first compound 3 µM): 0.16%
viability, T/C (second compound 10 µM, first compound 0.00949 µM): 0.14%
viability, T/C (second compound 10 µM, first compound 0.03 µM): 0.12%
viability, T/C (second compound 10 µM, first compound 0.0949 µM): 1.13%
viability, T/C (second compound 10 µM, first compound 0.3 µM): 0.76%
viability, T/C (second compound 10 µM, first compound 0.949 µM): 0.21%
viability, T/C (second compound 10 µM, first compound 3 µM): 0.37%

C#Cc1c(F)ccc2cc(O)cc(-c3ncc4c(N5CC6CCC(C5)N6)nc(OCC56CCCN5CC(F)C6)nc4c3F)c12 (stereo not drawn)
viability, T/C (compound 0.0316 µM): 106% and 77.8%
viability, T/C (compound 0.1 µM): 92.2% and 83.3%
viability, T/C (compound 0.316 µM): 103% and 102%
viability, T/C (compound 1 µM): 93.2% and 110%
viability, T/C (compound 3.16 µM): 98.7% and 94.8%
viability, T/C (compound 10 µM): 93% and 95.2%
IC50 (curve of compound): > 10 µM

C=CC(=O)N1CCN(c2nc(=O)n(-c3c(C)ccnc3C(C)C)c3nc(-c4c(O)cccc4F)c(F)cc23)C(C)C1 (stereo not drawn) + CNC(=O)c1ccc(Nc2nc(OC3CCCC3)c3c(-c4ccc5nc(C)oc5c4)c[nH]c3n2)c(OC)c1
IC50 [1]: > 10 µM
IC50 [2]: > 10 µM
IC50 [3]: < 0.0316 µM
IC50 [4]: < 0.0316 µM
IC50 [5]: < 0.0316 µM
IC50 [6]: < 0.0316 µM
viability, T/C [7]: 102%
viability, T/C [8]: 83.5%
viability, T/C [9]: 98.2%
viability, T/C [10]: 94.4%
viability, T/C [11]: 105%
viability, T/C [12]: 118%
viability, T/C [13]: 64.9%
viability, T/C [14]: 55.1%
viability, T/C [15]: 57.2%
viability, T/C [16]: 58.2%
viability, T/C [17]: 69.6%
viability, T/C [18]: 58.8%
viability, T/C [19]: 35.3%
viability, T/C [20]: 37.5%
viability, T/C [21]: 34.3%
viability, T/C [22]: 32.8%
viability, T/C [23]: 42.5%
viability, T/C [24]: 37.8%
viability, T/C [25]: 21.6%
viability, T/C [26]: 24.7%
viability, T/C [27]: 25.1%
viability, T/C [28]: 26.1%
viability, T/C [29]: 29.1%
viability, T/C [30]: 27.5%
viability, T/C [31]: 21.4%
viability, T/C [32]: 19.8%
viability, T/C [33]: 21.8%
viability, T/C [34]: 23.6%
viability, T/C [35]: 28.3%
viability, T/C [36]: 23.2%
viability, T/C [37]: 22.1%
viability, T/C [38]: 14.6%
viability, T/C [39]: 18.9%
viability, T/C [40]: 26%
viability, T/C [41]: 28.1%
viability, T/C [42]: 25%
